According to PMC12677843, “Multidisciplinary Preclinical Investigations on Ferrocenyl, Ruthenocenyl, and Benzyl Derivatives of Niridazole as New Drug Candidates against Schistosomiasis” (Chemmedchem, 2025):
Where two headings read alike, the source gives them in different places.

Assays:
[1] = test system: HUH7 hepatocarcinoma cells; experiment: XTT mitochondrial activity/cell viability assay, HUH7; assay type: cell-based; conditions: 20 µM, 24 h, serum-free media, vs DMSO control (0.2%)
Experimental: Results were normalized to the DMSO control. […]
(§1) to, so that all test concentrations contained always the same amount of DMSO.
(§2) Additionally, 2 wells with negative controls containing only DMSO and the culture medium were included. After an incubation period of 72 h at 37 °C and 5 % CO 2, the worms were microscopically evaluated. The drug effect was determined 24, 48 and 72 h post-exposure based on the phenotype of the adult worms, using a viability scale ranging from three referring to viable, motile worms with no change in their tegument to zero standing for the death of the worms.
All described in vitro studies with mice involved, were conducted at the Swiss Tropical and Public Health Institute, first in Basel, later in Allschwil, and had the approval by the corresponding veterinary authorities of the Canton Basel-Stadt (permit no. 2070) […]
Following 24 h of incubation, 12.5 μL of an XTT/phenazine methosulfate (PMS) (XTT Sigma Aldrich cat X4626, PMS Serva CAT: 3203) 0.02solution (1 mg/mL XTT and 7.5 μg/mL PMS) was added to each well. Absorbance was measured using a microplate reader (Biotek Synergy HT) at 450 nm (signal) and 650 nm (background), 2 h after the addition of the XTT/PMS solution. […] Mean ± SD was determined from three independent experiments, each performed in quintuplicate. […]
The cytotoxic potential was additionally evaluated using the staining-based SYTOX viability assay. […]

adult S. mansoni = experiment: In vitro drug sensitivity assay on adult S. mansoni (microscopic viability scoring); assay type: cell-based, Schistosoma mansoni; conditions: for EC50: Schistosoma mansoni, 37 °C, 5% CO2
Experimental: Figure 3 In vitro activity at 50 µM of the 12 compounds on adult S. mansoni. Adult schistosomes were incubated in culture media for 72 h at 37 °C and 5% CO2 with either compound (50 µM) or a DMSO (0.5%) control. The viability of the worms was microscopically evaluated and scored (0—3, in 0.5 steps) every 24 h. Results are from two independent experiments, each performed in duplicate. Drug activities were normalized to the DMSO controls. Data represent mean ± SD in percentage of DMSO control. […]
In vitro evaluation on adult S. mansoni
After a week for acclimatization to the new environment with controlled conditions (temperature: 22 °C ± 2 °C, humidity: 50 % ± 10 %, 12:12 h light/dark photocycle), four-week-old female NMRI mice (Charles River, Sulzfeld, Germany) were subcutaneously infected with approximately 100 cercariae to establish the S. mansoni infection. In the S. mansoni infected mice the worms were allowed to develop for 7 weeks into the adult stage, before they were extracted from the mesenteric veins of the euthanized mice. The adult worms were placed into RPMI 1640 (Gibco, Waltham MA, USA) medium supplemented with 1 % penicillin/streptomycin mixture and 5 % iFCS at 37 °C and 5 % CO 2. The drug sensitivity assay was set up in a 24-well plate with two wells containing each two pairs of S. mansoni worms per compound and concentration.
The final volume per well was 2 mL, containing the culture medium and the corresponding amount of drug dissolved in DMSO. The maximum concentration tested was 50 µM, corresponding to 0.5 % DMSO, to which all the other wells were adapted […]
as §1, §2
All described in vitro studies with mice involved, were conducted at the Swiss Tropical and Public Health Institute, first in Basel, later in Allschwil, and had the approval by the corresponding veterinary authorities of the Canton Basel-Stadt (permit no. 2070)

O=C1NCCN1c1ncc([N+](=O)[O-])s1 [Niridazole, niridazole]
XTT activity in HUH7 cells compared to DMSO control [1]: no signs of toxicity
drug effect at 50 µM on adult S. mansoni (adult S. mansoni; 50 µM, 72 h incubation, normalized to DMSO control, active if ≥60%): 83%
EC50 (adult S. mansoni; 24 h, 24 h drug exposure, read-out: EC50 on adult S. mansoni, 24 h): > 50 µM
EC50 (adult S. mansoni; 48 h, 48 h drug exposure, read-out: EC50 on adult S. mansoni, 48 h): 7.8 µM
EC50 (adult S. mansoni; 72 h, 72 h drug exposure, read-out: EC50 on adult S. mansoni, 72 h): 5.6 µM
